According to patent US12630510B2, “EP2 antagonist” (ONO PHARMACEUTICAL CO., LTD., priority 2019, dated 2026):

biological target: T1, human EP2 receptor (Homo sapiens, UniProt P43116); test: Experiment of measuring EP2 antagonistic activity using cells expressing prostanoid receptor (cAMP); format: cell-based; details: CHO cells expressing human EP2 receptor; PGE2 10 nmol/L; cAMP quantified after 1 hour at room temperature; read-out: EP2_IC50
T1 construct: expressed in transfected cells; host or cells: CHO cells
T1 sequence (P43116 whole entry): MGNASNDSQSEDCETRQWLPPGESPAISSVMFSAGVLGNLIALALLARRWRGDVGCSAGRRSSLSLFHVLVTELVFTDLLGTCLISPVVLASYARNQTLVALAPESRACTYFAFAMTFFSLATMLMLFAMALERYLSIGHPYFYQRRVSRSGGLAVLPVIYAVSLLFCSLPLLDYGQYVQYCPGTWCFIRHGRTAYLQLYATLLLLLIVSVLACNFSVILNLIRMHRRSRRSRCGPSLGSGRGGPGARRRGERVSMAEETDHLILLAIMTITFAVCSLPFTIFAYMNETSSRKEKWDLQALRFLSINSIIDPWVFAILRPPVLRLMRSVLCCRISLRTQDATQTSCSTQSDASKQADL
Protocol: CHO cells on each of which a human EP2 receptor had been expressed were prepared in accordance with the method by Nishigaki et al, (FEBS Letters, vol. 364, pp. 339-341, 1995) and were then cryopreserved in CELLBANKER2 (Nippon Zenyaku Kogyo Co., Ltd.) at a concentration of 1.5×10^7 cells/mL/vial. The CHO cells thus prepared were used in the experiment. The cells were thawed, and were then suspended in an assay medium (D-PBS containing 1 mmol/L IBMX, 2 μmol/L Diclofenac) at a concentration of 5×10^5 cells/mL. PGE2 alone having a final concentration of 10 nmol/L or a solution (10 μL) containing the PGE2 and a test compound was added to the cell suspension (10 μL) to initiate the reaction. After the reaction was performed at room temperature for 1 hour, the amount of cAMP in the cells was quantified in accordance with the method described in cAMP Gs Dynamic kit (CISBIO).
The antagonistic activity (IC50 value) of a test compound was calculated as a percentage of suppression of the reaction at 10 nM, which was a concentration at which a submaximal cAMP production activity was observed when PGE2 alone was employed. In this manner, an IC50 value was determined.

Row | SMILES | IC50 [nM]
1 | Cc1cc(OCCc2ccccc2)cc(C)c1C(=O)Nc1cc([C@H]2C[C@H]2C(=O)O)ccc1C(F)(F)F [Example 18, (1R,2S)-2-[3-{[2,6-Dimethyl-4-(2-phenylethoxy)benzoyl]amino}-4-(trifluoromethyl)phenyl]cyclopropanecarboxylic acid] | 0.9
2 | CC(C)c1nn(CCCc2ccccc2)cc1C(=O)Nc1cc([C@H]2C[C@H]2C(=O)O)ccc1C(F)(F)F [Example 31-1, (1R,2S)-2-[3-({[3-Isopropyl-1-(3-phenylpropyl)-1H-pyrazol-4-yl]carbonyl}amino)-4-(trifluoromethyl)phenyl]cyclopropanecarboxylic acid] | 8.9
3 | CC(C)c1c(C(=O)Nc2cc([C@H]3C[C@H]3C(=O)O)ccc2C(F)(F)F)cnn1CCCc1ccccc1 [Example 31-2, (1R,2S)-2-[3-({[5-Isopropyl-1-(3-phenylpropyl)-1H-pyrazol-4-yl]carbonyl}amino)-4-(trifluoromethyl)phenyl]cyclopropanecarboxylic acid] | 1.3
4 | Cc1cc(OCCc2ccccc2)cc(C)c1C(=S)Nc1cc([C@H]2C[C@H]2C(=O)O)ccc1C(F)(F)F [Example 32, (1R,2S)-2-[3-({[2,6-Dimethyl-4-(2-phenylethoxy)phenyl]carbonothioyl}amino)-4-(trifluoromethyl)phenyl]cyclopropanecarboxylic acid] | 13
5 | CCC(C)c1c(C(=O)Nc2cc([C@H]3C[C@H]3C(=O)O)ccc2C(F)(F)F)ccn1CCCc1ccccc1 (stereo partly drawn) [Example 34, (1R,2S)-2-[3-({[2-sec-Butyl-1-(3-phenylpropyl)-1H-pyrrol-3-yl]carbonyl}amino)-4-(trifluoromethyl)phenyl]cyclopropanecarboxylic acid] | < 0.3

test system: mouse colorectal cancer cell line CT26; test: Anti-tumor effect in allogenic transplantation model of mouse colorectal cancer cell line CT26; format: in vivo; details: female Balb/C mice, CT26 subcutaneous; 10 mg/kg per single dose, once on day-4, twice per day day-5 to day-25
Protocol: The anti-tumor effect of the compound of the present invention was evaluated in an allogenic transplantation model of CT26 that was a mouse colorectal cancer cell line. CT26 was cultured in a RPMI-1640 medium supplemented with 10 vol % of heat-inactivated fetal bovine serum (FBS), 100 units/mL of penicillin and 100 μg/mL of streptomycin in a CO2 incubator. On the day of transplantation, a culture supernatant was removed, CT26 was washed with a phosphate buffered saline (also abbreviated as “PBS”, hereinafter) and was then collected. The collected CT26 was suspended in PBS and was used as cells for transplantation. 300,000 cells for the transplantation were transplanted subcutaneously into female Balb/C mice (Charles River Laboratories Japan) on the right back. Four days after the transplantation, the mice were divided into two groups, i.e., a medium group and a compound A group, each including 10 cases. […] With respect to a tumor volume (mm^3), a shorter diameter and a longer diameter of a tumor were measured with an electronic caliper, and the tumor volume was calculated in accordance with mathematical formula 1 shown below. […]

Row | SMILES | tumor volumes on day-25 of the transplantation compared with medium-administered group
6 | Cc1cc(OCCc2ccccc2)cc(C)c1C(=O)Nc1cc([C@H]2C[C@H]2C(=O)O)ccc1C(F)(F)F [Example 18, (1R,2S)-2-[3-{[2,6-Dimethyl-4-(2-phenylethoxy)benzoyl]amino}-4-(trifluoromethyl)phenyl]cyclopropanecarboxylic acid] | significantly smaller
